We go through four molecules from patent US12104170B2, “Methods for deriving dopaminergic neurons from pluripotent stem cells” (MINERVA BIOTECHNOLOGIES CORPORATION, priority 2020, dated 2024).

For assay [1], the system named is human iPS cells differentiating to dopaminergic neurons. The assay is described as follows: Addition of forms of vitamin B6 or vitamin A around Day 20 of differentiation (morphology, markers, neural projections). It is filed as cell-based. To be noted: for empirically determined optimal concentration: added around Day 20 and onward, final concentration; for effect of adding vitamin B6 form on dopaminergic neurons: added starting around Day 21, retinol, retinyl acetate and vitamin C in all conditions (FIG. 16).
Experimental: In this next set of experiments, we followed Protocol A, except that around Day 20, the neural base media will be exchanged for one that contains approximately 1.2 uM retinol and 0.17 uM retinyl acetate and various other forms of vitamin B6 were then added (FIG. 1, Example 2). Resultant cells were analyzed for cell morphology, yield of TH and DAT positive cells relative to Tuj1 positivity and the number and length of neural projections as an indicator of engraftment potential.
We assessed the effects of various forms of vitamin B6 on differentiation of dopaminergic neurons from human iPS cells. […] The differentiation protocol called Protocol A (FIG. 1) was followed until Day 20. From Day 21 onward, to the basal media was added vitamin A in the form of retinol at 1.2 uM and retinyl acetate at 0.17 uM and vitamin C as ascorbic acid-2-phosphate at a final concentration of about 200 nM. It is important to note that the neural basal media that was used in all conditions contained 10 uM pyridoxal, so pyridoxal at this low concentration was present from the onset of differentiation.
In addition to the vitamins A and C which were constant throughout all conditions, various forms of vitamin B6 were added: 16 uM pyridoxine (FIG. 12A-12K), or 11 uM pyridoxal (FIG. 13A-13K), or 20 uM pyridoxal-5′-phosphate also known as PLP (FIG. 14A-14K), or all of the vitamin Bs. To assess the quality of the resultant dopaminergic neurons we examined: a) the percentage of the GIRK2 positive cells that were also positive for TH, Tyrosine hydroxylase which is an enzyme that mediates the conversion of L-tyrosine to L-3,4-dihydroxyphenylalanine, which is the rate limiting step in dopamine synthesis; this percentage should be high as an indicator of yield of the desired cell type -dopaminergic neurons; b) The percentage of TUJ positive neurons that were also TH positive; TUJ is a pleiotropic marker of neurons; only those that are TH positive are truly dopaminergic neurons; c) the percentage of the TUJ positive cells that are also positive for DAT, the dopamine transporter protein; d) the shape of the cell body should have the characteristic elongated triangular shape of neurons; and e) the length and number of neural projections associated with being TH and DAT positive. For engraftment, the length and number of neural projections is considered to be the most important factor.

The test system of assay [2] is human iPS cells differentiated to dopaminergic neurons. Briefly: Immunofluorescent staining for GIRK2, TH, DAT, Tuj1 and morphology (yield and purity of dopaminergic neurons). It is filed as cell-based. To be noted: iPSCs grown in E8 plus WNT3A for 48 hours before initiating differentiation. As to the method: On Day 24, immunofluorescent staining was performed to detect the presence of molecular markers of dopaminergic neuron progenitors generated using Protocol A (FIG. 2A-FIG. 2L) or Protocol C.2 (FIG. 3A-FIG. 3L). GIRK2 (G-protein-regulated inward-rectifier potassium channel 2) is expressed in dopaminergic neurons while Tuj1 (neuron-specific class Ill B-tubulin) is a pan-neural marker. TH (tyrosine hydroxylase) is considered a gold standard in the identification of dopaminergic neurons because it is an enzyme that catalyzes the conversion of L-tyrosine to L-3,4-dihydroxyphenylalanine, which is the rate limiting step in dopamine synthesis. DAT (dopamine active transporter) is equally important as it is the transmembrane protein that pumps dopamine from the synapse back into the cytosol. Both differentiation protocols produced cells that were positive for all appropriate molecular markers. […]
In addition to the vitamins A and C which were constant throughout all conditions, various forms of vitamin B6 were added: 16 uM pyridoxine (FIG. 12A-12K), or 11 uM pyridoxal (FIG. 13A-13K), or 20 uM pyridoxal-5′-phosphate also known as PLP (FIG. 14A-14K), or all of the vitamin Bs. […] FIG. 17 is a graph of the amount of dopamine and its metabolites, measured by HPLC, present in the conditioned media from only 200,000 cells taken at Day 30, Day 40, Day 50 or Day 60. […]

As for `Cc1ncc(COP(=O)(O)O)c(C=O)c1O` [pyridoxal-5′-phosphate], in assay [1], the “empirically determined optimal concentration” value (“empirically” for short) was in the range of 10 to 40 µM; the “effect of adding vitamin B6 form on dopaminergic neurons” value was “greatly increase dopamine yield and engraftment potential”.

Take `Cc1ncc(CO)c(C=O)c1O` [pyridoxal]: in assay [1], the “empirically” value was in the range of 5 to 20 µM; the “effect of adding vitamin B6 form on dopaminergic neurons” value is “greatly increase dopamine yield and engraftment potential”.

As for `Cc1ncc(CO)c(CO)c1O` [pyridoxine], in assay [1], the “empirically” value fell in the range of 10 to 20 µM.

B1: WNT3A: beta-catenin agonist added to pluripotent stem cell media at 100 ng/mL for 48 hours before differentiation (protein, UniProt P56704 19-352, looked up)
Protein Wnt-3a: SYPIWWSLAVGPQYSSLGSQPILCASIPGLVPKQLRFCRNYVEIMPSVAEGIKIGIQECQHQFRGRRWNCTTVHDSLAIFGPVLDKATRESAFVHAIASAGVAFAVTRSCAEGTAAICGCSSRHQGSPGKGWKWGGCSEDIEFGGMVSREFADARENRPDARSAMNRHNNEAGRQAIASHMHLKCKCHGLSGSCEVKTCWWSQPDFRAIGDFLKDKYDSASEMVVEKHRESRGWVETLRPRYTYFKVPTERDLVYYEASPNFCEPNPETGSFGTRDRTCNVSSHGIDGCDLLCCGRGHNARAERRREKCRCVFHWCCYVSCQECTRVYDVHTCK
B1: the “survival of differentiating cells” value in assay [2] is “increased survival at Day 60”.
